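Test compounds were applied to cells in 96-well plates for 48 hours at 5 doses. TGI: concentration producing complete growth inhibition.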
Experiments:
Test in all cases: NCI tumour cell line growth inhibition, 48 h
[1] = system: M14 melanoma
[2] = system: U251 CNS
[3] = system: SW-620 colon
[4] = system: K-562 leukemia
[5] = system: PC-3 prostate
[6] = system: SF-268 CNS
[7] = system: HCT-15 colon
[8] = system: NCI-H23 lung
[9] = system: HL-60(TB) leukemia
[10] = system: CAKI-1 renal
[11] = system: OVCAR-5 ovarian
[12] = system: HCT-116 colon
[13] = system: SK-MEL-28 melanoma
[14] = system: SNB-75 CNS
[15] = system: HOP-92 NSCLC
[16] = system: HCC-2998 colon
[17] = system: NCI-H460 lung
[18] = system: MDA-MB-435
[19] = system: A498 renal
[20] = system: TK-10 renal
[21] = system: UACC-257 melanoma
[22] = system: MCF7 breast
[23] = system: ACHN renal
[24] = system: MDA-N
[25] = system: SR leukemia
[26] = system: MALME-3M melanoma
[27] = system: OVCAR-8 ovarian
[28] = system: SNB-19 CNS
[29] = system: HT29 colon
[30] = system: LOX IMVI melanoma
[31] = system: HOP-62 NSCLC
[32] = system: RXF 393 renal
[33] = system: OVCAR-4 ovarian
[34] = system: NCI-H226 lung
[35] = system: SN12C renal
[36] = system: KM12 colon
[37] = system: UACC-62 melanoma
[38] = system: SF-539 CNS
[39] = system: NCI/ADR-RES ovarian
[40] = system: EKVX NSCLC
[41] = system: DU-145 prostate
[42] = system: SF-295 CNS
[43] = system: NCI-H522 lung
[44] = system: T-47D breast
[45] = system: MDA-MB-231 breast
[46] = system: UO-31 renal
[47] = system: IGROV1 ovarian
[48] = system: BT-549 breast
[49] = system: SK-OV-3 ovarian
[50] = system: 786-0 renal
[51] = system: CCRF-CEM leukemia
[52] = system: COLO 205 colon
[53] = system: A549 NSCLC
[54] = system: MOLT-4 leukemia
[55] = system: OVCAR-3 ovarian
[56] = system: SK-MEL-2 melanoma
[57] = system: RPMI-8226 leukemia
[58] = system: HS 578T breast
[59] = system: SK-MEL-5 melanoma

## O=c1c2c3c(sc2nc2n1N=C(c1ccc(Br)cc1)CS2)CCCC3
[1]
  TGI: > 100 µM
[2]
  TGI: > 100 µM
[3]
  TGI: > 100 µM
[4]
  TGI: > 100 µM
[5]
  TGI: > 100 µM
[6]
  TGI: > 100 µM
[7]
  TGI: > 100 µM
[8]
  TGI: > 100 µM
[9]
  TGI: > 100 µM
[10]
  TGI: > 100 µM
[11]
  TGI: > 100 µM
[12]
  TGI: > 100 µM
[13]
  TGI: > 100 µM
[14]
  TGI: > 100 µM
[15]
  TGI: > 100 µM
[16]
  TGI: > 100 µM
[17]
  TGI: > 100 µM
[18]
  TGI: > 100 µM
[19]
  TGI: > 100 µM
[20]
  TGI: > 100 µM
[21]
  TGI: > 100 µM
[22]
  TGI: > 100 µM
[23]
  TGI: > 100 µM
[24]
  TGI: > 100 µM
[25]
  TGI: > 100 µM
[26]
  TGI: > 100 µM
[27]
  TGI: > 100 µM
[28]
  TGI: > 100 µM
[29]
  TGI: > 100 µM
[30]
  TGI: > 100 µM
[31]
  TGI: > 100 µM
[32]
  TGI: > 100 µM
[33]
  TGI: > 100 µM
[34]
  TGI: > 100 µM
[35]
  TGI: > 100 µM
[36]
  TGI: > 100 µM
[37]
  TGI: > 100 µM
[38]
  TGI: > 100 µM
[39]
  TGI: > 100 µM
[40]
  TGI: > 100 µM
[41]
  TGI: > 100 µM
[42]
  TGI: > 100 µM
[43]
  TGI: > 100 µM
[44]
  TGI: > 100 µM
[45]
  TGI: > 100 µM
[46]
  TGI: > 100 µM
[47]
  TGI: > 100 µM
[48]
  TGI: > 100 µM
[49]
  TGI: > 100 µM
[50]
  TGI: > 100 µM
[51]
  TGI: > 100 µM
[52]
  TGI: > 100 µM
[53]
  TGI: > 100 µM
[54]
  TGI: > 100 µM
[55]
  TGI: > 100 µM

## CN1C2=Nc3n(c4ccccc4[n+]3C)CN2c2ccccc21
[1]
  TGI: > 100 µM
[2]
  TGI: > 100 µM
[3]
  TGI: > 100 µM
[4]
  TGI: > 100 µM
[5]
  TGI: > 100 µM
[6]
  TGI: 44.1 µM
[7]
  TGI: > 100 µM
[8]
  TGI: > 100 µM
[9]
  TGI: > 100 µM
[10]
  TGI: > 100 µM
[11]
  TGI: > 100 µM
[12]
  TGI: > 100 µM
[56]
  TGI: 41.8 µM
[15]
  TGI: 81.1 µM
[17]
  TGI: > 100 µM
[18]
  TGI: 91 µM
[20]
  TGI: > 100 µM
[57]
  TGI: > 100 µM
[21]
  TGI: > 100 µM
[22]
  TGI: 33.6 µM
[23]
  TGI: > 100 µM
[24]
  TGI: 50.5 µM
[25]
  TGI: 81.5 µM
[26]
  TGI: 18 µM
[27]
  TGI: > 100 µM
[28]
  TGI: > 100 µM
[29]
  TGI: > 100 µM
[31]
  TGI: > 100 µM
[35]
  TGI: 93.7 µM
[58]
  TGI: 90.8 µM
[36]
  TGI: 46.8 µM
[37]
  TGI: 42.6 µM
[38]
  TGI: > 100 µM
[39]
  TGI: > 100 µM
[40]
  TGI: > 100 µM
[41]
  TGI: > 100 µM
[42]
  TGI: > 100 µM
[43]
  TGI: 65.4 µM
[44]
  TGI: 55.1 µM
[45]
  TGI: > 100 µM
[46]
  TGI: > 100 µM
[47]
  TGI: > 100 µM
[48]
  TGI: > 100 µM
[49]
  TGI: > 100 µM
[50]
  TGI: > 100 µM
[51]
  TGI: > 100 µM
[59]
  TGI: 27.8 µM
[52]
  TGI: 41.9 µM
[53]
  TGI: > 100 µM
[54]
  TGI: > 100 µM
[55]
  TGI: 34.7 µM

## CCOC(=O)/C=C/c1cccc(F)c1
[1]
  TGI: > 100 µM
[2]
  TGI: > 100 µM
[3]
  TGI: > 100 µM
[4]
  TGI: > 100 µM
[5]
  TGI: > 100 µM
[6]
  TGI: > 100 µM
[7]
  TGI: > 100 µM
[8]
  TGI: > 100 µM
[9]
  TGI: > 100 µM
[10]
  TGI: > 100 µM
[11]
  TGI: > 100 µM
[12]
  TGI: > 100 µM
[56]
  TGI: > 100 µM
[13]
  TGI: > 100 µM
[14]
  TGI: > 100 µM
[15]
  TGI: > 100 µM
[16]
  TGI: > 100 µM
[17]
  TGI: > 100 µM
[18]
  TGI: > 100 µM
[19]
  TGI: > 100 µM
[20]
  TGI: > 100 µM
[57]
  TGI: > 100 µM
[21]
  TGI: > 100 µM
[22]
  TGI: > 100 µM
[23]
  TGI: > 100 µM
[24]
  TGI: > 100 µM
[25]
  TGI: > 100 µM
[26]
  TGI: > 100 µM
[27]
  TGI: > 100 µM
[28]
  TGI: > 100 µM
[29]
  TGI: > 100 µM
[30]
  TGI: > 100 µM
[31]
  TGI: > 100 µM
[32]
  TGI: > 100 µM
[33]
  TGI: > 100 µM
[34]
  TGI: > 100 µM
[35]
  TGI: > 100 µM
[36]
  TGI: > 100 µM
[37]
  TGI: > 100 µM
[38]
  TGI: > 100 µM
[39]
  TGI: > 100 µM
[40]
  TGI: > 100 µM
[41]
  TGI: > 100 µM
[43]
  TGI: > 100 µM
[44]
  TGI: > 100 µM
[45]
  TGI: > 100 µM
[46]
  TGI: > 100 µM
[47]
  TGI: > 100 µM
[48]
  TGI: > 100 µM
[50]
  TGI: > 100 µM
[51]
  TGI: > 100 µM
[52]
  TGI: > 100 µM
[53]
  TGI: > 100 µM
[54]
  TGI: > 100 µM

## CC1=NOC(=O)/C1=C/c1ccc2c(c1)OCO2
[1]
  TGI: > 100 µM
[2]
  TGI: 38 µM
[3]
  TGI: 60.9 µM
[4]
  TGI: > 100 µM
[5]
  TGI: 48.5 µM
[6]
  TGI: > 100 µM
[7]
  TGI: 45.3 µM
[8]
  TGI: > 100 µM
[10]
  TGI: 36.4 µM
[11]
  TGI: > 100 µM
[12]
  TGI: > 100 µM
[56]
  TGI: 39 µM
[13]
  TGI: > 100 µM
[14]
  TGI: 57.5 µM
[15]
  TGI: > 100 µM
[16]
  TGI: 95.5 µM
[17]
  TGI: > 100 µM
[18]
  TGI: 56.6 µM
[19]
  TGI: 62.3 µM
[20]
  TGI: > 100 µM
[57]
  TGI: 55.2 µM
[21]
  TGI: > 100 µM
[22]
  TGI: > 100 µM
[23]
  TGI: 38.2 µM
[24]
  TGI: 85.7 µM
[25]
  TGI: 52.5 µM
[26]
  TGI: > 100 µM
[27]
  TGI: 86.3 µM
[28]
  TGI: 95 µM
[29]
  TGI: 57.3 µM
[30]
  TGI: 36.1 µM
[31]
  TGI: 40.9 µM
[32]
  TGI: 30.7 µM
[33]
  TGI: > 100 µM
[34]
  TGI: 49.8 µM
[35]
  TGI: 59.4 µM
[58]
  TGI: > 100 µM
[36]
  TGI: 36.6 µM
[37]
  TGI: 43.5 µM
[38]
  TGI: 64.9 µM
[39]
  TGI: > 100 µM
[40]
  TGI: > 100 µM
[41]
  TGI: 68.6 µM
[42]
  TGI: 69.6 µM
[43]
  TGI: > 100 µM
[44]
  TGI: > 100 µM
[45]
  TGI: 53.9 µM
[46]
  TGI: 38.9 µM
[47]
  TGI: 78.5 µM
[48]
  TGI: 56.8 µM
[49]
  TGI: > 100 µM
[50]
  TGI: 46.6 µM
[51]
  TGI: 67.5 µM
[59]
  TGI: > 100 µM
[52]
  TGI: 32.4 µM
[53]
  TGI: > 100 µM
[55]
  TGI: 98.9 µM
